d = 2'-deoxy (DNA)
Key:
[1] = tested on: cell surface β2AR; test: Flowcytometry of cell surface β2AR in 293.β2AR^WT cells; format: cell-based, human
Experimental: (§1) Cell Culture, Transfection and Drug Treatments. […] Transfection of DNA into 293T cells was using FuGene 6 reagent (Roche) according to manufacturer's instruction. […] FDPS-specific siRNA (sense [NT], antisense [NT]) was from Sigma-Aldrich and the non-targeting Scrambled siRNA was from Thermo Scientific. […] Cells were washed with PBS and incubated with diluted TrypLE Express Enzyme (Invitrogen) (1:10 dilutio in PBS) for exactly 1 min at room temperature followed by adding regular medium immediately. […] Then cells were washed again and passed through cell strainers to remove cell clumps before being sorted on a FACS Aria multicolor high speed sorter (Becton Dickinson). During FACS analysis, the population of single cell was gated to measured FITC (green) signal. Background of auto-fluorescence was identified by plotting FITC with PE (red) or SSC (side scatter) signal. FITC-positive cells were collected in calcium and magnesium-free PBS with 20% FBS. Collected cells were cultured for repeating FACS sorting. […] The population of PI-negative single cell was gated to measured FITC signal.

[2] = tested on: cellular cholesterol; test: Cellular cholesterol measurement in 293.β2AR* cells; format: cell-based, human
Experimental: Error bars represented the standard deviations of replicates.
Cellular cholesterol measurement. 1×10^6 cells were cultured in each well of 6-well plates in DMEM containing 10% FBS for 3 d until fully confluent. Then drug treatments were performed in either DMEM containing 10% FBS or Opti-MEM without serum in duplicates. Cells were transferred to microcentrifuge tubes, washed twice with ice-cold PBS. Total lipids were extracted by resuspending and lysing cells in 300 μL of Chloroform: Isopropanol: Triton X-100 (7:11:0.1). The organic phase was collected after centrifugation at 12,000 rpm for 10 min and then evaporated at 50° C. for 3-4 h. Lipids were resuspend in 200 μL of Cholesterol Reaction buffer included in a commercial cholesterol measurement kit (Invitrogen) by votexing. Cholesterol was measured by the cholesterol oxidase method according to the manufacturer's directions. 2 or 4 measurements were taken for each replicate sample.

[3] = tested on: cell surface β2AR; test: Flowcytometry of cell surface β2AR in 293.β2AR* (recycle-deficient FLAG-β2AR, β2ARt) cells; format: cell-based, human
Experimental: as §1

[4] = tested on: human airway smooth muscle cells; test: Optical Magnetic Twisting Cytometry (elastic modulus) of HASM cells; conditions: for decrease of stiffness compared to baseline: 1 mM isoproterenol, measured over 15 min
[5] = tested on: CaMKK2; test: qRT-PCR of CaMKK2 mRNA in primary HASM cells; format: cell-based, human; conditions: 50 nM siRNA; three days after transfection
[6] = target: T1, β2ARt (Homo sapiens, UniProt P07550); test: Immunoblot of agonist-induced β2AR degradation in 293β2AR* / β2ARt cells; format: cell-based; conditions: after 3 hours of agonist induction (10 μM isoproterenol); vs empty vector
T1 construct: a distally truncated form (after residue 385) of β2AR (β2ARt); expressed in transfected cells; host or cells: HEK293 (293.β2AR*)
Experimental: β2AR ubiquitination and degradation assays. Cells expressing […] or β2ARt were subjected to 10 μM ISO (Sigma) stimulation, lysed in 0.5% NP-40 lysis buffer and immunoblotted with anti-FLAG-HRP (Sigma). For β2AR ubiquitination, β2ARt or wt-β2AR expressing cells were first incubated with 10 μM alprenolol antagonist (Sigma) for 15 min (to reduce constitutive background ubiquitination), stimulated with 10 μM ISO and lysed in buffer supplemented with 10 mM N-ethylmaleimide (NEM; Sigma) to inhibit deubiquitinase activity. Anti-FLAG EZview beads (Sigma) used for the IP were subjected to three 10 min washes with lysis buffer and resuspended in 50 μl 2βLDS sample buffer (Invitrogen) containing 10% β-mercaptoethanol (Sigma) and analyzed by immunoblotting.

[7] = tested on: FDPS; test: Real-time RT-PCR of FDPS mRNA in 293β2AR* cells; format: cell-based, human; conditions: normalized to β-Actin
Experimental: FIGS. 4A-4D show FDPS regulates the amount of Cell Surface β2AR in 293βAR* cells. […]. […] Cells were transduced with Lentivirus expressing FDPS-specific shRNA or empty vector, or transfected with FDPS-specific siRNA or non-targeting Scrambled (SCR) siRNA. The RNA levels were determined by real time RT-PCR and normalized to that of β-Actin. Error bars represented the standard deviations of replicates. Statistic analysis was using student's t-test. […]. MFI: Mean fluorescence intensity.
Real-Time RT-PCR. Total RNA was isolated by using TRIzol (Invitrogen) and further cleaned up by using RNeasy Mini kit (Qiagen) with DNase I digestion. cDNA was synthesized by using oligo-dT primers and SuperScript III (Invitrogen). Real-time PCR was performed on ABI Prism 7300 with SYBR Green (Qiagene). The FDPS was amplified with primers FDPS-1F (5′-TGACCGGCAAAATTGGCACTGACAT-3′) (SEQ ID NO: 20) and FDPS-1R (5′-CCTTCACCCGGGCCACTTTCTCA-3′) (SEQ ID NO: 21). […]. The β-Actin control was amplified with primers (Forward, 5′-AAG GCC AAC CGC GAG AAG-3′ (SEQ ID NO: 28) and Reverse, 5′-GGC GTA CAG GGA TAG CAC-3′ (SEQ ID NO: 29)).

[8] = tested on: β2AR; test: Immunoblot of β2AR protein in human airway smooth muscle (HASM) cells; conditions: 20 μM isoproterenol for 2 d; vs non targeting shRNA
Experimental: Error bars represented the standard deviations; Student t-test * p<0.05, n=2. […] Indirect Immunofluorescence staining of β2AR and phase contract images are shown.
Three days after the inhibitor treatment cell lysates were collected and analyzed by immunoblotting. Three repeats were done with similar results.
Immunoblot analysis. 48 h post DNA transfection, cells were wash with PBS and lysed with NP-40 lysing buffer (50 mM Tris-HCl pH7.5, 150 mM NaCl, 0.5% Nonidet P-40) containing protease inhibitor cocktail (Roche). Protein samples were separated on NuPAGE 10% Bis-Tris gels (Invitrogen) and transferred to nitrocellulose membranes (Bio-Rad). Immunoblot signals were developed using SuperSignal West Pico Chemiluminescent Substrate (Pierce, Rockford, Ill., USA) and quantified by a Luminescence Imager or exposed to X-ray films.

[9] = target: T2, NEDD4 E3 ubiquitin ligase (UniProt P46934-4 1-900, limits assumed); test: co-immunoprecipitation and immunoblot (FIG. 8B)
T2 construct: also called ubiquitin ligase NEDD4
T2 sequence (looked up): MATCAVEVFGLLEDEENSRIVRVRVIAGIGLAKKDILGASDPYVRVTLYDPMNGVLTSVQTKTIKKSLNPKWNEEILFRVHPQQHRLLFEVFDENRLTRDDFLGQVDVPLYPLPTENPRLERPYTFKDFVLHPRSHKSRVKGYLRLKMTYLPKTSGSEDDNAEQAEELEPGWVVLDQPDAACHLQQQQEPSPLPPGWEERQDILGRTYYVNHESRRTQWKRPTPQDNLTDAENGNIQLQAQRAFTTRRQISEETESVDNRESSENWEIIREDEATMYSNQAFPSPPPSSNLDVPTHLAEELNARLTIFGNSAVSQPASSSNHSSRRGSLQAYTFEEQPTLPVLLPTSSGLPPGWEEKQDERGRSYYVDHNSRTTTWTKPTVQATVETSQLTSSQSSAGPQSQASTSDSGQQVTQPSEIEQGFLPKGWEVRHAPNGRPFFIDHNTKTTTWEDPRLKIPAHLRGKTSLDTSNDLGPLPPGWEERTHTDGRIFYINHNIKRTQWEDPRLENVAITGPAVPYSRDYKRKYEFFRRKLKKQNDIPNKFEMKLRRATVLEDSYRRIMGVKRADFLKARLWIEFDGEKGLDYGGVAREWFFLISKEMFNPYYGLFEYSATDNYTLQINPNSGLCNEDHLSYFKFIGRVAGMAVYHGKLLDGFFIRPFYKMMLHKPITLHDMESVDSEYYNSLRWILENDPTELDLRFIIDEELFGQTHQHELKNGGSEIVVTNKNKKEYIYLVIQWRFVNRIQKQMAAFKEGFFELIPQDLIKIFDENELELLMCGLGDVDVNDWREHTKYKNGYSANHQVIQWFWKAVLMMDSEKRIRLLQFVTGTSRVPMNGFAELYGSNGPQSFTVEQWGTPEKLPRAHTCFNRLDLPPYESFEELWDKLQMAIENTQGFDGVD

NCCCC(O)(P(=O)([O-])O)P(=O)(O)O.[Na+] [alendronate, (4-amino-1-hydroxybutylidene)bisphosphonic acid monosodium salt]
amount of cell surface β2AR ([1]; 50 μM alendronate alone for 1 d): increased the amount of cell surface β2AR | cell surface β2AR levels before and after agonist induction ([1]; 50 μM for 1 d, then 10 μM isoproterenol 1 h): increased the cell surface β2AR levels both before and after agonist induction | effect on cellular cholesterol ([2]; 50 μM ALN or 100 μg/mL pravastatin for 1 d, serum containing medium): neither alendronate nor pravastatin could significantly lower the cellular cholesterol | effect on cellular cholesterol ([2]; 50 μM for 1 d, serum-free medium): not sufficient to lower cellular cholesterol | cell surface β2AR levels after agonist induction ([3]; 50 or 500 μM for 1 d, then 10 μM isoproterenol 3 h): dose dependent increase of the cell surface β2AR levels | surface β2AR levels prior and post agonist induction ([3]; treatment for 2 days, data not shown): increase the surface β2AR levels

CC(C)CCC[C@@H](C)[C@H]1CC[C@H]2[C@@H]3CC=C4C[C@@H](O)CC[C@]4(C)[C@H]3CC[C@]12C [cholesterol]
effect on FDPS blockade of β2AR down-regulation ([1]; cholesterol supplementation (FIG. 6A)): reverses the effects of FDPS blockade

CC(C)NCC(O)c1ccc(O)c(O)c1 (stereo not shown) [isoproterenol]
decrease of stiffness compared to baseline ([4]; FDPS knockdown (sample) cells): ~15% | decrease of stiffness compared to baseline ([4]; control cells): ~40%

CC[C@H](C)C(=O)O[C@H]1C[C@H](O)C=C2C=C[C@H](C)[C@H](CC[C@@H](O)C[C@@H](O)CC(=O)O)[C@H]21 [pravastatin]
effect on amount of cell surface β2AR ([1]; 100 μg/mL for 1 d): no significant effect | cellular cholesterol lowering ([2]; 1 μg/mL for 1 d, serum-free medium): 19.9% | effect on amount of cell surface β2AR ([3]; 100 μg/mL for 1 d): no significant effect

AA496068 EST shRNA: shRNA TCTGCATTTCCTGTAATTTTGCATGC (SEQ ID NO: 2) targeting EST AA496068 upstream of latrophilin 2
cell surface β2AR, mean fluorescence intensity ([3]; β2ARt-expressing 293 cells, vehicle or ISO 16 h, vs non-targeting shRNA): An increase in the mean fluorescence intensity values

ARRDC3-specific shRNA: shRNA sequence CCACAGACACCACTCGCTACCTCATT (SEQ ID NO: 24)
higher level of cell surface receptor after agonist stimulation ([3]; β2ARt cells, vs non-targeting shRNA): > 20%

CaMKK2 siRNA #1: 5′ GCUCCUAUGGUGUCGUCAAdTdT (SEQ ID NO: 32), MISSION siRNA from Sigma (GCUCCUAUGGUGUCGUCAATT; further chemistry not given here)
knockdown of CaMKK2 expression [5]: about 90%

CaMKK2 siRNA #2: 5′ UUGACGACACCAUAGGAGCdTdT (SEQ ID NO: 33), MISSION siRNA from Sigma (UUGACGACACCAUAGGAGCTT; further chemistry not given here)
knockdown of CaMKK2 expression [5]: about 90%

FDPS-specific shRNA: lentiviral shRNA clone, hairpin sequence 5′-AGCGGAGAAAGTGACCTAGAGATTG-3′ (SEQ ID NO: 20) (AGCGGAGAAAGTGACCTAGAGATTG)
amount of β2AR by immunoblot [6]: increased amount of β2AR | down regulation of FDPS mRNA level (knockdown efficiency) [7]: about 10% | baseline elastic modulus (t=0) ([4]; FDPS knockdown cells vs control cells): approximately two times lower | total amount of β2AR [8]: upregulation of β2AR

FDPS-specific siRNA: sense 5′-cca ugu aca ugg cag gaa u(dT)(dT)-3′, antisense 5′-auu ccu gcc aug uac aug g(dT)(dT)-3′, from Sigma-Aldrich (sense CCAUGUACAUGGCAGGAAU; antisense AUUCCUGCCAUGUACAUGG; RNA, 3' dTdT, backbone not given here)
increase in cell surface β2AR ([3]; both prior and post agonist induction (10 μM isoproterenol 1 or 3 h), vs non-targeting control siRNA): about 2 fold | down regulation of FDPS mRNA level (knockdown efficiency) [7]: about 80%

Methyl-beta-cyclodextrin [MbCD]
cellular cholesterol lowering ([2]; 2 mM for 1 h, medium containing 10% FBS): 35.3% | cell surface β2AR post agonist induction ([3]; 1 or 2 mM for 1 h, then 10 μM isoproterenol 1 h): increased amount of cell surface β2AR post agonist induction

B1: ARRDC3ΔΔPPXY (double PPXY motif mutant of ARRDC3) (other, human, UniProt Q96B67 1-414, looked up)
chain: MVLGKVKSLTISFDCLNDSNVPVYSSGDTVSGRVNLEVTGEIRVKSLKIHARGHAKVRWTESRNAGSNTAYTQNYTEEVEYFNHKDILIGHERDDDNSEEGFHTIHSGRHEYAFSFELPQTPLATSFEGRHGSVRYWVKAELHRPWLLPVKLKKEFTVFEHIDINTPSLLSPQAGTKEKTLCCWFCTSGPISLSAKIERKGYTPGESIQIFAEIENCSSRMVVPKAAIYQTQAFYAKGKMKEVKQLVANLRGESLSSGKTETWNGKLLKIPPVSPSILDCSIIRVEYSLMVYVDIPGAMDLFLNLPLVIGTIPLHPFGSRTSSVSSQCSMNMNWLSLSLPERPEAAASAAEVVTEEQRRNNLAPVSACDDFERALQGPLFAYIQEFRFLPAALASEIDPNPDQSADDRPSCPSR
notes: also called double PPXY ARRDC3 mutant; double PPXY mutant
binding result [9]: no binding

From patent publication US20130090371A1, “METHODS AND COMPOSITIONS FOR INHIBITION OF BETA2-ADRENERGIC RECEPTOR DEGRADATION” (PRESIDENT AND FELLOWS OF HARVARD COLLEGE, priority 2010, published 2013)
